Holding throughout (format): cell-based
In test [1] the target is T1, Group 10 secretory phospholipase A2 (Homo sapiens, UniProt O15496).
T1 sequence (O15496 whole entry): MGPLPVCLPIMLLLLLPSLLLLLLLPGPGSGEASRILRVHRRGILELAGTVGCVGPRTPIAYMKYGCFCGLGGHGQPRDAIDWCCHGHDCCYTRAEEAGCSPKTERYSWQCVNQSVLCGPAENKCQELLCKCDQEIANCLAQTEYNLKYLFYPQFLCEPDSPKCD
Put plainly: Inhibition of human cloned sPLA2-10 expressed in HEK293 cells.

Test [2] deals with T2, Cytosolic phospholipase A2 (Homo sapiens, UniProt P47712).
T2 sequence (P47712 whole entry): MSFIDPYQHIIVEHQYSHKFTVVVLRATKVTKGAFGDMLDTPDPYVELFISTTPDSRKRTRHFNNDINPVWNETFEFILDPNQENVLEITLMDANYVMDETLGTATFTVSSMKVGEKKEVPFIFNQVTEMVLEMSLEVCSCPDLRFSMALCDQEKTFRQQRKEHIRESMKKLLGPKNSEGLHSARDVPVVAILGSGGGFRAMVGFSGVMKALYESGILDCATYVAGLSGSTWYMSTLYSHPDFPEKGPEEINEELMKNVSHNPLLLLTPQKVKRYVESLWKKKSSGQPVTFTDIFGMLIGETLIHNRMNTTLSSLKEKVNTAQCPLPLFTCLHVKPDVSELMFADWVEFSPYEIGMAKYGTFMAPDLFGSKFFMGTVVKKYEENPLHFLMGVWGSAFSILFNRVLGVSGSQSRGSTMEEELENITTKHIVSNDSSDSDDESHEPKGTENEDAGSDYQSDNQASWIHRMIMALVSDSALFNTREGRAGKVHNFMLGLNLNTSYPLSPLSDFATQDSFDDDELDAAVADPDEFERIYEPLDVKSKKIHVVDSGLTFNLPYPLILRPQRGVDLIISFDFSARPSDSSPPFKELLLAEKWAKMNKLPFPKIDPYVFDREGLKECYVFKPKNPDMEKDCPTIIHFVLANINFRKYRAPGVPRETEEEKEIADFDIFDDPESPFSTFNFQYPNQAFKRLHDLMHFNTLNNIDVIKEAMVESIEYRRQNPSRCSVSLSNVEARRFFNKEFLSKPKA
The test can be described thus: Inhibition of human cloned cPLA2 expressed in HEK293 cells.

The next test concerns the target Phospholipase A2 (Rattus norvegicus, UniProt P04055). Put plainly: Inhibition of rat cloned sPLA2-1B expressed in HEK293 cells.
A short description of test [3]: Inhibition of human cloned sPLA2-5 expressed in HEK293 cells.

Data on eight compounds can be found in ChEMBL document CHEMBL1140451, “Inhibitory effect of synthetic C-C biflavones on various phospholipase A(2)s activity” (Bioorg Med Chem, 2007).

Phospholipase A2, sequence (P04055 whole entry): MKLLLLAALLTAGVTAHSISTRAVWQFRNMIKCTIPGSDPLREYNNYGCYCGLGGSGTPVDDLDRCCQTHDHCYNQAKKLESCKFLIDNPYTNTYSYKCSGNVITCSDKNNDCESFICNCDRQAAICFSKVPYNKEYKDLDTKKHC

The term IC50 denotes the concentration at which inhibition is half-maximal. As for `O=c1cc(-c2ccccc2)oc2ccc(-c3ccc4oc(-c5ccccc5)cc(=O)c4c3)cc12`, the IC50 was more than 100 µM in test [1], 48.1 µM in test [2], more than 100 µM on Phospholipase A2 and 50 µM in test [3].

Turning to `O=c1cc(-c2ccc(Oc3cc(-c4cc(=O)c5c(O)cc(O)cc5o4)ccc3O)cc2)oc2cc(O)cc(O)c12` [OCHNAFLAVONE], the IC50 in test [1] was more than 100 µM; in test [2] it was more than 100 µM; at Phospholipase A2, more than 100 µM; in test [3], 17.6 µM.

In the case of `O=c1cc(-c2ccc(-c3c(-c4ccccc4)oc4ccccc4c3=O)cc2)oc2ccccc12`, the IC50 in test [1] is more than 100 µM; in test [2] it was 8.42 µM; at Phospholipase A2, more than 100 µM; in test [3], 6.5 µM.

Take `O=c1cc(-c2ccc(-c3cccc(-c4cc(=O)c5ccccc5o4)c3)cc2)oc2ccccc12`: the IC50 in test [1] is more than 100 µM; in test [2], 38.7 µM; against Phospholipase A2, more than 100 µM; in test [3] it was 23.9 µM.

As for `O=c1cc(-c2ccc(-c3ccc(-c4cc(=O)c5ccccc5o4)cc3)cc2)oc2ccccc12`, the IC50 is more than 100 µM in test [1], 6 µM in test [2], more than 100 µM on Phospholipase A2 and 8.7 µM in test [3].

With `O=c1cc(-c2cccc(-c3ccc4oc(-c5ccccc5)cc(=O)c4c3)c2)oc2ccccc12`, the IC50 in test [1] was 27.6 µM; in test [2], 16.8 µM; at Phospholipase A2, more than 100 µM; in test [3] it was 12.8 µM.

Turning to `O=c1cc(-c2ccc(-c3ccc4oc(-c5ccccc5)cc(=O)c4c3)cc2)oc2ccccc12`, the IC50 was more than 100 µM in test [1], 11.9 µM in test [2], more than 100 µM against Phospholipase A2 and 10.8 µM in test [3].

As for `O=c1cc(-c2ccc(O)c(-c3c(O)cc(O)c4c(=O)cc(-c5ccc(O)cc5)oc34)c2)oc2cc(O)cc(O)c12` [AMENTOFLAVONE], the IC50 is more than 100 µM in test [1], more than 100 µM in test [2], more than 100 µM at Phospholipase A2 and 41.8 µM in test [3].
